This passage reports inhibition results from patent US8273754B2, “Substituted 1H-pyrazolo[3,4-D]pyrimidine-6-amine compounds” (ArQule, Inc., priority 2008, dated 2012).

Like-named read-outs stand apart in the source and are kept apart here. Some results are limits rather than exact numbers.

In the test the test system is cancer cells. As to the kind of experiment: MTS cell growth inhibition assay (72 hours). The format is cell-based. The method, boiled down:
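Growth inhibition read as formazan absorbance at 492 nm after 4 h MTS/PMS, following 72 h compound exposure at 37 °C in 1% FBS DMEM (cells pre-seeded 18 h). IC50 = 50% absorbance reduction; inhibition graded in bands.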

[1] abbreviates: Homo sapiens, DLD-1, 72 h, DLD-1 cells, read-out: DLD-1 MTS 72 hr at 10 μM.
[2] abbreviates: Homo sapiens, KATO III, 72 h, KATO III cells, read-out: KATO III MTS 72 hr at 10 μM.
Setting [3] is: Homo sapiens, MDA-MB-231, 72 h, MDA-MB-231 cells, read-out: MDA-MB-231 MTS 72 hr at 10 μM.
The mark [4] stands for this setting: Homo sapiens, NCI-H1299, 72 h, NCI-H1299 cells, read-out: NCI-H1299 MTS 72 hr at 10 μM.
Setting [5] is: PaCa-2, 72 h, PACA-2 cells, read-out: PACA-2 MTS 72 hr at 10 μM.

In the case of `Nc1nc(NC2Cc3ccccc3N(S(=O)(=O)c3ccc(NC(=O)Nc4ccccc4Cl)cc3)C2)c2cn[nH]c2n1` (stereo not shown) [Compound 190, 1-[4-({3-[(6-amino-1H-pyrazolo[3,4-d]pyrimidin-4-yl)amino]-3,4-dihydroquinolin-1(2H)-yl}sulfonyl)phenyl]-3-(2-chlorophenyl)urea], the inhibition at 10 µM is, setting by setting: under setting [1], < 50%; under setting [2], < 50%; under setting [3], < 50%; under setting [4], < 50%; under setting [5], < 50%.

As to `Nc1nc(NC2Cc3ccccc3N(S(=O)(=O)c3ccc(NC(=O)Nc4ccccc4F)cc3)C2)c2cn[nH]c2n1` (stereo not shown) [Compound 191, 1-[4-({3-[(6-amino-1H-pyrazolo[3,4-d]pyrimidin-4-yl)amino]-3,4-dihydroquinolin-1(2H)-yl}sulfonyl)phenyl]-3-(2-fluorophenyl)urea], the inhibition at 10 µM by setting is: under setting [1], < 50%; under setting [2], < 50%; under setting [3], < 50%; under setting [4], < 50%; under setting [5], < 50%.

As to `Nc1nc(NC2Cc3ccccc3N(S(=O)(=O)c3ccc(NC(=O)NC4CCCc5ccccc54)cc3)C2)c2cn[nH]c2n1` (stereo not shown) [Compound 192, 1-[4-({3-[(6-amino-1H-pyrazolo[3,4-d]pyrimidin-4-yl)amino]-3,4-dihydroquinolin-1(2H)-yl}sulfonyl)phenyl]-3-(1,2,3,4-tetrahydronaphthalen-1-yl)urea], the inhibition at 10 µM by setting is: under setting [1], > 79%; under setting [2], > 79%; under setting [3], > 79%; under setting [4], > 79%; under setting [5], > 79%.

On to `Nc1nc(NC2Cc3ccccc3N(S(=O)(=O)c3ccc(NC(=O)Nc4ccc5c(c4)CCC5)cc3)C2)c2cn[nH]c2n1` (stereo not shown) [Compound 193, 1-[4-({3-[(6-amino-1H-pyrazolo[3,4-d]pyrimidin-4-yl)amino]-3,4-dihydroquinolin-1(2H)-yl}sulfonyl)phenyl]-3-(2,3-dihydro-1H-inden-5-yl)urea], for which the inhibition at 10 µM is, setting by setting: under setting [1], 50 to 79%; under setting [2], > 79%; under setting [3], 50 to 79%; under setting [4], > 79%; under setting [5], > 79%.

Regarding `Nc1nc(NC2Cc3ccccc3N(S(=O)(=O)c3ccc(NC(=O)Nc4ccc(F)c(F)c4)cc3)C2)c2cn[nH]c2n1` (stereo not shown) [Compound 194, 1-[4-({3-[(6-amino-1H-pyrazolo[3,4-d]pyrimidin-4-yl)amino]-3,4-dihydroquinolin-1(2H)-yl}sulfonyl)phenyl]-3-(3,4-difluorophenyl)urea], the inhibition at 10 µM is, setting by setting: under setting [1], > 79%; under setting [2], > 79%; under setting [3], > 79%; under setting [4], > 79%; under setting [5], > 79%.

On to `Cc1cccc(NC(=O)Nc2ccc(S(=O)(=O)N3CC(Nc4nc(N)nc5[nH]ncc45)Cc4ccccc43)cc2)c1` (stereo not shown) [Compound 195, 1-[4-({3-[(6-amino-1H-pyrazolo[3,4-d]pyrimidin-4-yl)amino]-3,4-dihydroquinolin-1(2H)-yl}sulfonyl)phenyl]-3-(3-methylphenyl)urea], for which the inhibition at 10 µM reads like this: under setting [1], > 79%; under setting [2], > 79%; under setting [3], > 79%; under setting [4], < 50%; under setting [5], > 79%.

For the compound `Nc1nc(NC2Cc3ccccc3N(S(=O)(=O)c3ccc(NC(=O)Nc4cc(C(F)(F)F)ccc4F)cc3)C2)c2cn[nH]c2n1` (stereo not shown) [Compound 196, 1-[4-({3-[(6-amino-1H-pyrazolo[3,4-d]pyrimidin-4-yl)amino]-3,4-dihydroquinolin-1(2H)-yl}sulfonyl)phenyl]-3-[2-fluoro-5-(trifluoromethyl)phenyl]urea], the inhibition at 10 µM is > 79% under setting [1]; > 79% under setting [2]; > 79% under setting [3]; 50 to 79% under setting [4]; > 79% under setting [5].

For `Nc1nc(NC2Cc3ccccc3N(S(=O)(=O)c3ccc(NC(=O)Nc4cc(F)cc(C(F)(F)F)c4)cc3)C2)c2cn[nH]c2n1` (stereo not shown) [Compound 197, 1-[4-({3-[(6-amino-1H-pyrazolo[3,4-d]pyrimidin-4-yl)amino]-3,4-dihydroquinolin-1(2H)-yl}sulfonyl)phenyl]-3-[3-fluoro-5-(trifluoromethyl)phenyl]urea], the inhibition at 10 µM is, setting by setting: under setting [1], > 79%; under setting [2], > 79%; under setting [3], > 79%; under setting [4], > 79%; under setting [5], > 79%.

For `Nc1nc(NC2Cc3ccccc3N(S(=O)(=O)c3ccc(NC(=O)Nc4ccc5c(c4)Cc4ccccc4-5)cc3)C2)c2cn[nH]c2n1` (stereo not shown) [Compound 198, 1-[4-({3-[(6-amino-1H-pyrazolo[3,4-d]pyrimidin-4-yl)amino]-3,4-dihydroquinolin-1(2H)-yl}sulfonyl)phenyl]-3-(9H-fluoren-2-yl)urea], the inhibition at 10 µM under setting [1] is > 79%; the inhibition at 10 µM under setting [2] is > 79%; the inhibition at 10 µM under setting [3] is < 50%; the inhibition at 10 µM under setting [4] was > 79%; the inhibition at 10 µM under setting [5] is < 50%.

`Nc1nc(NC2Cc3ccccc3N(S(=O)(=O)c3cccc(NC(=O)Nc4cccc(C(F)(F)F)c4)c3)C2)c2cn[nH]c2n1` (stereo not shown) [Compound 199, 1-[3-({3-[(6-amino-1H-pyrazolo[3,4-d]pyrimidin-4-yl)amino]-3,4-dihydroquinolin-1(2H)-yl}sulfonyl)phenyl]-3-[3-(trifluoromethyl)phenyl]urea]: the inhibition at 10 µM under setting [1] was > 79%; the inhibition at 10 µM under setting [2] was > 79%; the inhibition at 10 µM under setting [3] was > 79%; the inhibition at 10 µM under setting [4] is > 79%; the inhibition at 10 µM under setting [5] was > 79%.

Turning to `Nc1nc(NC2Cc3ccccc3N(S(=O)(=O)c3cccc(NC(=O)Nc4ccccc4)c3)C2)c2cn[nH]c2n1` (stereo not shown) [Compound 200, 1-[3-({3-[(6-amino-1H-pyrazolo[3,4-d]pyrimidin-4-yl)amino]-3,4-dihydroquinolin-1(2H)-yl}sulfonyl)phenyl]-3-phenylurea], the inhibition at 10 µM under setting [1] is < 50%; the inhibition at 10 µM under setting [2] is < 50%; the inhibition at 10 µM under setting [3] is < 50%; the inhibition at 10 µM under setting [4] is < 50%; the inhibition at 10 µM under setting [5] was < 50%.

Turning to `Nc1nc(NC2Cc3ccccc3N(S(=O)(=O)c3cccc(NC(=O)Nc4cccc(Cl)c4)c3)C2)c2cn[nH]c2n1` (stereo not shown) [Compound 201, 1-[3-({3-[(6-amino-1H-pyrazolo[3,4-d]pyrimidin-4-yl)amino]-3,4-dihydroquinolin-1(2H)-yl}sulfonyl)phenyl]-3-(3-chlorophenyl)urea], the inhibition at 10 µM is > 79% under setting [1]; > 79% under setting [2]; > 79% under setting [3]; > 79% under setting [4]; > 79% under setting [5].

On to `Nc1nc(NC2Cc3ccccc3N(S(=O)(=O)c3cccc(NC(=O)Nc4ccc5c(c4)Cc4ccccc4-5)c3)C2)c2cn[nH]c2n1` (stereo not shown) [Compound 202, 1-[3-({3-[(6-amino-1H-pyrazolo[3,4-d]pyrimidin-4-yl)amino]-3,4-dihydroquinolin-1(2H)-yl}sulfonyl)phenyl]-3-(9H-fluoren-2-yl)urea], for which the inhibition at 10 µM was > 79% under setting [1]; > 79% under setting [2]; > 79% under setting [3]; 50 to 79% under setting [4]; > 79% under setting [5].

With `Nc1nc(NC2Cc3ccccc3N(S(=O)(=O)c3cccc(NC(=O)Nc4c(F)cccc4F)c3)C2)c2cn[nH]c2n1` (stereo not shown) [Compound 203, 1-[3-({3-[(6-amino-1H-pyrazolo[3,4-d]pyrimidin-4-yl)amino]-3,4-dihydroquinolin-1(2H)-yl}sulfonyl)phenyl]-3-(2,6-difluorophenyl)urea], the inhibition at 10 µM is < 50% under setting [1]; < 50% under setting [2]; < 50% under setting [3]; < 50% under setting [4]; 50 to 79% under setting [5].

In the case of `Nc1nc(NC2Cc3ccccc3N(S(=O)(=O)c3cccc(NC(=O)Nc4c(F)cccc4C(F)(F)F)c3)C2)c2cn[nH]c2n1` (stereo not shown) [Compound 204, 1-[3-({3-[(6-amino-1H-pyrazolo[3,4-d]pyrimidin-4-yl)amino]-3,4-dihydroquinolin-1(2H)-yl}sulfonyl)phenyl]-3-[2-fluoro-6-(trifluoromethyl)phenyl]urea], the inhibition at 10 µM is < 50% under setting [1]; < 50% under setting [2]; < 50% under setting [3]; < 50% under setting [4]; 50 to 79% under setting [5].

`Cc1cccc(NC(=O)Nc2cccc(S(=O)(=O)N3CC(Nc4nc(N)nc5[nH]ncc45)Cc4ccccc43)c2)c1` (stereo not shown) [Compound 205, 1-[3-({3-[(6-amino-1H-pyrazolo[3,4-d]pyrimidin-4-yl)amino]-3,4-dihydroquinolin-1(2H)-yl}sulfonyl)phenyl]-3-(3-methylphenyl)urea]: the inhibition at 10 µM runs as follows: under setting [1], 50 to 79%; under setting [2], > 79%; under setting [3], 50 to 79%; under setting [4], < 50%; under setting [5], > 79%.

For `Nc1nc(NC2Cc3ccccc3N(S(=O)(=O)c3cccc(NC(=O)Nc4c(F)cc(Br)cc4F)c3)C2)c2cn[nH]c2n1` (stereo not shown) [Compound 206, 1-[3-({3-[(6-amino-1H-pyrazolo[3,4-d]pyrimidin-4-yl)amino]-3,4-dihydroquinolin-1(2H)-yl}sulfonyl)phenyl]-3-(4-bromo-2,6-difluorophenyl)urea], the inhibition at 10 µM is, setting by setting: under setting [1], < 50%; under setting [2], 50 to 79%; under setting [3], < 50%; under setting [4], < 50%; under setting [5], 50 to 79%.
